This note sets out measurements from ChEMBL document CHEMBL1124790, “Angiotensin converting enzyme inhibitors. 10. Aryl sulfonamide substituted N-[1-carboxy-3-phenylpropyl]-L-alanyl-L-proline derivatives as novel antihypertensives” (J Med Chem, 1990).

Molecules are shown by their SMILES.

Usually IC50 stands for the concentration that gives 50% inhibition. Low readings indicate higher potency, high ones lower potency. By inhibition is commonly meant the share of the control response that was lost under treatment. A high value points to a response far below the control.

The subject of experiment [1] is Rattus norvegicus. Put plainly: Antihypertensive activity was determined in spontaneously hypertensive rat at a dose of 100 mg/kg(po) administration. It counts as functional.
Experiment [2] concerns the target T1, Angiotensin-converting enzyme (Oryctolagus cuniculus) (UniProt P12822).
T1 sequence (whole entry): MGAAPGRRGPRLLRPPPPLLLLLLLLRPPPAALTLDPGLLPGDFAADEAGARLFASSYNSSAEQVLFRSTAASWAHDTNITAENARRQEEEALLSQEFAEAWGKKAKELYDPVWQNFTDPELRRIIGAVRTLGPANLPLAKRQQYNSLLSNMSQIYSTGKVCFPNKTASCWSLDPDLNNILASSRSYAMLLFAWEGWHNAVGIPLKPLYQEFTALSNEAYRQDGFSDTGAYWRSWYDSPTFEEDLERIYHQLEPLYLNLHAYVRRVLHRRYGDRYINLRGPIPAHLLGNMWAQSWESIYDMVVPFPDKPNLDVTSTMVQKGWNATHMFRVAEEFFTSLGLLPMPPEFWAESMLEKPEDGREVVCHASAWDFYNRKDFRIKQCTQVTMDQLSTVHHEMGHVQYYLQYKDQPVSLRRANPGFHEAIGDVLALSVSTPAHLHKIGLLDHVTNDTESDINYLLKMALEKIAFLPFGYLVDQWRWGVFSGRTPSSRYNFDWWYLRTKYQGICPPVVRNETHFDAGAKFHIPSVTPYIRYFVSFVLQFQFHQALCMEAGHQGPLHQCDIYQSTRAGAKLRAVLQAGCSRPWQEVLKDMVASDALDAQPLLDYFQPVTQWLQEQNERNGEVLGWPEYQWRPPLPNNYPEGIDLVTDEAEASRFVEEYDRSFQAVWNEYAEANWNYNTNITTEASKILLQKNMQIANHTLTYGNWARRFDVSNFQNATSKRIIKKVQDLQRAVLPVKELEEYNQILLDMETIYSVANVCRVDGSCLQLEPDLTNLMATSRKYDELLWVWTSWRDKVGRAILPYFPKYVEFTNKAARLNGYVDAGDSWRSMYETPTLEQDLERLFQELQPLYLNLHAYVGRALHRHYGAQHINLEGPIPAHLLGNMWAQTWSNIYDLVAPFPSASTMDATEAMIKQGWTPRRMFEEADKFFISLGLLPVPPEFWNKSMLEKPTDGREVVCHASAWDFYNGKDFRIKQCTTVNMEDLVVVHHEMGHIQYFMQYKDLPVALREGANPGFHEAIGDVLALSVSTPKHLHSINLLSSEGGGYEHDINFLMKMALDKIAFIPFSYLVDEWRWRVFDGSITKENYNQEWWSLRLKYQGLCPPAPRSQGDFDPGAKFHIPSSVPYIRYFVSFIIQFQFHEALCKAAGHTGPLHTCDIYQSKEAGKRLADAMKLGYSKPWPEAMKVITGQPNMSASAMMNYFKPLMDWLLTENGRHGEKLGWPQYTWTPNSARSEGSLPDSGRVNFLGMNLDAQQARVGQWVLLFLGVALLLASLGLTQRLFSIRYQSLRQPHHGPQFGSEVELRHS
Put plainly: Time during which angiotensin I converting enzyme inhibition is greater than or equa to 30% in rabbit lung. It counts as functional, tissue-based.

In experiment [3] the target is T2, Angiotensin-converting enzyme (Oryctolagus cuniculus, UniProt P12822).
T2 sequence (P12822 whole entry): T1 sequence (whole entry)
Put plainly: In vitro inhibition of angiotensin I converting enzyme(ACE) in rabbit lung. The experiment is classed as tissue-based.

Experiment [4] relates to Rattus norvegicus. Nature of the experiment: Time duration was determined for the actioni (determination of MAP in ip administration) in rat. It counts as functional.
For experiment [5], the target named is T1, Angiotensin-converting enzyme (Oryctolagus cuniculus). Put plainly: Time to inhibit maximum angiotensin I converting enzyme in rabbit lung. The experiment is classed as functional, tissue-based.
Experiment [6] has the same target. Put plainly: In vivo inhibition of angiotensin I converting enzyme (ACE) in rabbit lung after (iv) administration of a dose of 10(mg/kg). The experiment is classed as organism-based.
Experiment [7] relates to Angiotensin-converting enzyme (Sus scrofa). Nature of the experiment: Time to inhibit maximum angiotensin I converting enzyme in Hog plasma.
For experiment [8], the target named is T1, Angiotensin-converting enzyme (Oryctolagus cuniculus). Put plainly: In vivo inhibition of angiotensin I converting enzyme (ACE) in rabbit lung after (po) administration of a dose of 10(mg/kg). It counts as organism-based.
Experiment [9] relates to Rattus norvegicus. Put plainly: Percent change in Na+ in fasted rats at the dose of 82 mg/kg (iv), 0-5 h. The experiment is classed as functional.
The test system of experiment [10] is Rattus norvegicus. Put plainly: Time duration was determined for the actioni (determination of MAP in case of oral administration) in rat. The experiment is classed as functional.
The subject of experiment [11] is Angiotensin-converting enzyme (Sus scrofa). Put plainly: Time during which angiotensin I converting enzyme inhibition is greater than or equal to 30% in Hog plasma.
For experiment [12], the system named is Rattus norvegicus. Nature of the experiment: Antihypertensive activity was determined in spontaneously hypertensive rat at a dose of 100 mg/kg(ip) administration. It counts as functional.
For experiment [13], the species on record is Rattus norvegicus. Nature of the experiment: The onset hour was determined in rat. The experiment is classed as functional.
Experiment [14] deals with Rattus norvegicus. Nature of the experiment: Percent change in urinary volume in fasted rats at the dose of 82 mg/kg (iv), 0-5 h. It counts as functional, Urine.
In experiment [15] the test system is Rattus norvegicus. Nature of the experiment: Percent change in K+ in fasted rats at the dose of 82 mg/kg (iv), 0-5 h. The experiment is classed as functional.
In experiment [16] the test system is Rattus norvegicus. Put plainly: Percent change in K+ in fasted rats at the dose of 10 mg/kg (iv), 0-5 h. The experiment is classed as functional.
Experiment [17] relates to Rattus norvegicus. Put plainly: Percent change in urinary volume in fasted rats at the dose of 30 mg/kg (po), 0-5 h. It counts as functional, Urine.
The subject of experiment [18] is Rattus norvegicus. Nature of the experiment: Percent change in K+ in fasted rats at the dose of 30 mg/kg (po), 0-5 h. It counts as functional.
Experiment [19] relates to Rattus norvegicus. Nature of the experiment: Percent change in Na+ in fasted rats at the dose of 10 mg/kg (iv), 0-5 h. It counts as functional.
Experiment [20] concerns Rattus norvegicus. Nature of the experiment: Percent change in urinary volume in fasted rats at the dose of 10 mg/kg (iv), 0-5 h. It counts as functional, Urine.
Experiment [21] deals with Rattus norvegicus. Nature of the experiment: Percent change in Na+in fasted rats at the dose of 30 mg/kg (po), 0-5 h. The experiment is classed as functional.
The subject of experiment [22] is Rattus norvegicus. Put plainly: Percent change in K+ in fasted rats at the dose of 100 mg/kg (iv), 5-24 h. It counts as functional.
For experiment [23], the system named is Rattus norvegicus. Nature of the experiment: Percent change in urinary volume in fasted rats at the dose of 100 mg/kg (iv), 5-24 h. It counts as functional, Urine.
In experiment [24] the test system is Rattus norvegicus. Nature of the experiment: Percent change in urinary volume in fasted rats at the dose of 100 mg/kg (iv), 0-5 h. The experiment is classed as functional, Urine.
Experiment [25] concerns Rattus norvegicus. Put plainly: Percent change in Na+ in fasted rats at the dose of 100 mg/kg (iv), 0-5 h. It counts as functional.
Experiment [26] concerns the target T2, Angiotensin-converting enzyme. Nature of the experiment: In vitro inhibition of angiotensin I converting enzyme (ACE) in rabbit lung. It counts as tissue-based.
Experiment [27] has as its system Rattus norvegicus. Put plainly: Percent change in K+ in fasted rats at the dose of 100 mg/kg (iv), 0-5 h. The experiment is classed as functional.
For experiment [28], the system named is Rattus norvegicus. Put plainly: Percent change in Na+in fasted rats at the dose of 100 mg/kg (iv), 5-24 h. It counts as functional.

With `C[C@H](N[C@@H](CCc1ccccc1)C(=O)O)C(=O)N1C[C@H](OCCC2Nc3cc(Cl)c(S(N)(=O)=O)cc3S(=O)(=O)N2)C[C@H]1C(=O)O` (stereo partly specified), the entries for the “Change in MAP” value in the experiment with Rattus norvegicus [1] and in the experiment with Rattus norvegicus [12] were -19% and -35%, respectively. The Duration in experiment [2] was 3.7 h; in the experiment with Rattus norvegicus [4] it was greater than 14 h; in the experiment with Rattus norvegicus [10], 19 h; in experiment [11], 1.6 h. Also, the IC50 in experiment [3] was found to be 22 nM. The Time to max. inhibition in [5] is 0.3 h; in experiment [7], 2.6 h. The inhibition turned out to be 100% in experiment [6] and 38% in [8]. In addition, the Change in the experiment on Rattus norvegicus [9] came out at 60%; in the experiment with Rattus norvegicus [14] it was 0%; in the experiment on Rattus norvegicus [15] it was 80%. Further, the Onset in the experiment filed under Rattus norvegicus [13] is 0.25 h.

As for `NS(=O)(=O)c1cc2c(cc1Cl)N=CNS2(=O)=O` [CHLOROTHIAZIDE], the Change in the experiment on Rattus norvegicus [16] is 100%; with Rattus norvegicus [17], 94%; in the experiment on Rattus norvegicus [18], 71%; with Rattus norvegicus [19], 60%; with Rattus norvegicus [20] it was 83%; in the experiment with Rattus norvegicus [21], 0%.

The compound `C[C@H](N[C@@H](CCc1ccccc1)C(=O)O)C(=O)N1C[C@@H](NS(=O)(=O)c2cc(S(N)(=O)=O)c(N)cc2Cl)C[C@H]1C(=O)O` displayed a Duration in [2] of 3.7 h. The Change in the experiment with Rattus norvegicus [22] was 0%; with Rattus norvegicus [23], 60%; with Rattus norvegicus [24] it was -49%; with Rattus norvegicus [25] it was -57%; in the experiment with Rattus norvegicus [27] it was 0%; with Rattus norvegicus [28], 38%. This compound also registered a Time to max. inhibition in experiment [5] of 0.3 h. Besides, in experiment [6], the inhibition is 76%. This compound returned an IC50 in [26] of 6.5 nM.
